Measured values as given in patent US20250144067A1, “PERSONALIZED STARVATION THERAPY FOR CANCER” (Faeth Therapeutics, Inc., priority 2021, published 2025).
Where a name gives a salt, the structure may show the parent alone.

How the values were obtained:
[1] = tested on: NCI-H292 lung cancer cells; assay: FDA drug screening, complete media vs cholesterol-free media without statin (TABLE 1); assay type: cell-based, human
[2] = tested on: NCI-H292 lung cancer cells; assay: FDA drug screening, complete media vs cholesterol-free media with simvastatin (TABLE 2); assay type: cell-based, human; conditions: for Cholesterol-free media + simvastatin (0.04 μM) / Complete Media: NCI-H292 cells
[3] = NCI-H292 cells, cholesterol-free media without statin, FDA drug library screen
[4] = NCI-H292 cells, complete media, FDA drug library screen
[5] = complete vs cholesterol-free media, >0 enhanced anti-cancer activity, about 0 neutral, <0 antagonist
[6] = FDA drug library screen, cholesterol-free media with simvastatin 0.04 μM
[7] = FDA drug library screen, complete media
[8] = complete media minus cholesterol-free media + simvastatin, >0 enhanced anti-cancer activity, about 0 neutral, <0 antagonist
[9] = NCI-H292 cells, cholesterol-free media without statin
[10] = complete vs cholesterol-free media, […]
[11] = drug in cholesterol-free media with simvastatin 0.04 μM
[12] = complete media vs cholesterol-free media + simvastatin (0.04 μM), […]
[13] = complete vs cholesterol-free media, greater than 0 enhanced anti-cancer activity, about 0 neutral, below 0 antagonists
[14] = complete media vs cholesterol-free media + simvastatin (0.04 μM), >0 enhanced anti-cancer activity, about 0 neutral, <0 antagonist
[15] = Complete minus Cholesterol-free, >0 enhanced anti-cancer activity, about 0 neutral, <0 antagonist
[16] = Complete minus Cholesterol-free, greater than 0 enhanced anti-cancer activity, about 0 neutral, below 0 antagonist
[17] = NCI-H292 cells, FDA drug library screen, cholesterol-free media without statin
[18] = NCI-H292 cells, FDA drug library screen, complete media
[19] = FDA library drug in cholesterol-free media with simvastatin 0.04 μM
[20] = FDA library drug in complete media
[21] = Complete minus Cholesterol-free, greater than 0 enhanced anti-cancer activity, about 0 neutral, below 0 antagonists
[22] = NCI-H292 cells in cholesterol-free media without statin
[23] = NCI-H292 cells in complete media
[24] = Complete minus Cholesterol-free, […]
[25] = cholesterol-free media with simvastatin 0.04 μM, cell growth value in FDA drug screen
[26] = complete media, cell growth value in FDA drug screen
[27] = cholesterol-free media with simvastatin 0.04 μM, FDA drug library screen (TABLE 2)
[28] = complete media, FDA drug library screen (TABLE 2)

Compound: CC1(C)S[C@@H]2[C@H](NC(=O)[C@H](N)c3ccc(O)cc3)C(=O)N2[C@H]1C(=O)O [Amoxicillin]
- Cholesterol-free [1, 3]: 0.9555
- Complete [1, 4]: 1.159
- Difference [1, 5]: 0.20
- Cholesterol-free media + simvastatin (0.04 μM) [2, 6]: 0.9948
- Complete Media [2, 7]: 1.386
- Difference [2, 8]: 0.39

Compound: O[C@H]([C@H](O)[C@@H]1CO1)[C@H]1CO1 [VAL-083]
- Cholesterol-free [1, 9]: 1.036
- Complete ([1]; NCI-H292 cells, complete media): 0.6339
- Difference [1, 10]: −0.40
- Cholesterol-free media + simvastatin (0.04 μM) [2, 11]: 0.879
- Complete Media ([2]; drug in complete media): 0.7017
- Difference [2, 12]: −0.18

Compound: CN1CCC(=C2c3ccccc3Sc3ccccc32)CC1 [Pimethixene maleate]
- Cholesterol-free [1, 9]: 1.492
- Complete ([1]; NCI-H292 cells, complete media): 1.142
- Difference [1, 13]: −0.35
- Cholesterol-free media + simvastatin (0.04 μM) [2, 11]: 1.097
- Complete Media ([2]; drug in complete media): 0.9153
- Difference [2, 14]: −0.18

Compound: Cc1ncc([N+](=O)[O-])n1CC(O)CN1CCOCC1 (stereo not drawn) [Morinidazole]
- Cholesterol-free [1, 9]: 1.15
- Complete ([1]; NCI-H292 cells, complete media): 0.8164
- Difference [1, 13]: −0.33
- Cholesterol-free media + simvastatin (0.04 μM) [2, 6]: 1.535
- Complete Media [2, 7]: 1.676
- Difference [2, 8]: 0.14

Compound: OC[C@H]1O[C@@H](c2ccc(Cl)c(Cc3ccc(O[C@H]4CCOC4)cc3)c2)[C@H](O)[C@@H](O)[C@@H]1O [Empagliflozin]
- Cholesterol-free [1, 3]: 0.7937
- Complete [1, 4]: 1.112
- Difference [1, 5]: 0.32
- Cholesterol-free media + simvastatin (0.04 μM) [2, 6]: 0.9749
- Complete Media [2, 7]: 0.8261
- Difference [2, 14]: −0.15

Compound: CCO[C@H]1O[C@@H]2O[C@@]3(C)CC[C@H]4[C@H](C)CC[C@@H]([C@H]1C)[C@@]24OO3 [Artemotil]
- Difference [1, 15]: −0.21
- Cholesterol-free [1, 9]: 0.7572
- Complete ([1]; NCI-H292 cells, complete media): 0.5514
- Cholesterol-free media + simvastatin (0.04 μM) [2, 6]: 0.9606
- Complete Media [2, 7]: 0.8046
- Difference [2, 14]: −0.16

Compound: COc1ccccc1OCC(O)CO (stereo not drawn) [Guaifenesin]
- Cholesterol-free [1, 9]: 1.204
- Complete ([1]; NCI-H292 cells, complete media): 0.8523
- Difference [1, 13]: −0.35
- Cholesterol-free media + simvastatin (0.04 μM) [2, 6]: 1.078
- Complete Media [2, 7]: 1.326
- Difference [2, 8]: 0.25

Compound: c1cc(CN2CCCNCCNCCCNCC2)ccc1CN1CCCNCCNCCCNCC1 [Plerixafor (octahydrochloride)]
- Difference [1, 16]: −0.08
- Cholesterol-free [1, 17]: 1.221
- Complete [1, 18]: 1.137
- Cholesterol-free media + simvastatin (0.04 μM) [2, 19]: 1.159
- Complete Media [2, 20]: 0.812
- Difference [2, 14]: −0.35

Compound: CC(=O)O[C@H]1CC[C@@]2(C)C(=CC[C@@H]3[C@@H]2CC[C@]2(C)C(c4cccnc4)=CC[C@@H]32)C1 [Abiraterone acetate]
- Cholesterol-free [1, 3]: 0.5232
- Complete [1, 4]: 1.307
- Difference [1, 5]: 0.78
- Cholesterol-free media + simvastatin (0.04 μM) [2, 19]: 1.209
- Complete Media [2, 20]: 0.9
- Difference [2, 14]: −0.31

Compound: CC(C)OC(=O)C(C(=O)OC(C)C)=C1SC=CS1 [Malotilate]
- Difference [1, 15]: −0.31
- Cholesterol-free [1, 9]: 1.163
- Complete ([1]; NCI-H292 cells, complete media): 0.8568
- Cholesterol-free media + simvastatin (0.04 μM) [2, 19]: 1.172
- Complete Media [2, 20]: 0.8557
- Difference [2, 14]: −0.32

Compound: CN(C)CC/C=C1/c2ccccc2Sc2ccc(Cl)cc21 [Chlorprothixene (hydrochloride)]
- Cholesterol-free [1, 9]: 1.492
- Complete ([1]; NCI-H292 cells, complete media): 1.027
- Difference [1, 13]: −0.46
- Cholesterol-free media + simvastatin (0.04 μM) [2, 6]: 0.8374
- Complete Media [2, 7]: 1.056
- Difference [2, 8]: 0.22

Compound: Cc1cccc(C)c1NC(=O)C1CCCCN1C (stereo not drawn) [Mepivacaine (hydrochloride)]
- Difference [1, 21]: −0.61
- Cholesterol-free [1, 22]: 1.413
- Complete [1, 23]: 0.805
- Cholesterol-free media + simvastatin (0.04 μM) [2, 6]: 1.253
- Complete Media [2, 7]: 1.396
- Difference [2, 8]: 0.14

Compound: Bremelanotide (Acetate)
- Difference [1, 24]: −0.90
- Cholesterol-free [1, 22]: 1.638
- Complete [1, 23]: 0.7395
- Cholesterol-free media + simvastatin (0.04 μM) [2, 19]: 1.644
- Complete Media [2, 20]: 1.021
- Difference [2, 12]: −0.62

Compound: Tedizolid (phosphate)
- Difference [1, 15]: −0.01
- Cholesterol-free [1, 3]: 0.8406
- Complete [1, 4]: 0.8345
- Cholesterol-free media + simvastatin (0.04 μM) [2, 25]: 0.7735
- Complete Media [2, 26]: 0.8096
- Difference [2, 8]: 0.04

Compound: Cc1cc(C)nc(NS(=O)(=O)c2ccc(N)cc2)n1 [Sulfamethazine]
- Difference [1, 21]: −0.77
- Cholesterol-free [1, 22]: 1.661
- Complete [1, 23]: 0.8945
- Cholesterol-free media + simvastatin (0.04 μM) [2, 6]: 1.21
- Complete Media [2, 7]: 1.052
- Difference [2, 14]: −0.16

Compound: CCC(=O)OCC(=O)[C@@]1(OC(=O)CC)[C@@H](C)C[C@H]2[C@@H]3CCC4=CC(=O)C=C[C@]4(C)[C@@]3(Cl)[C@@H](O)C[C@@]21C [Beclometasone dipropionate]
- Difference [1, 16]: −0.19
- Cholesterol-free [1, 17]: 1.005
- Complete [1, 18]: 0.8203
- Cholesterol-free media + simvastatin (0.04 μM) [2, 19]: 1.133
- Complete Media [2, 20]: 0.8544
- Difference [2, 14]: −0.28

Compound: COC[C@H]1C[C@@H](c2nc(-c3ccc4c(c3)COc3cc5c(ccc6nc([C@@H]7CC[C@H](C)N7C(=O)[C@@H](NC(=O)OC)C(C)C)[nH]c65)cc3-4)c[nH]2)N(C(=O)[C@H](NC(=O)OC)c2ccccc2)C1 [Velpatasvir]
- Difference [1, 15]: −0.30
- Cholesterol-free [1, 9]: 1.014
- Complete ([1]; NCI-H292 cells, complete media): 0.7173
- Cholesterol-free media + simvastatin (0.04 μM) [2, 25]: 0.7455
- Complete Media [2, 26]: 0.7768
- Difference [2, 8]: 0.03

Compound: CCCCCCCCC(=O)NCc1ccc(O)c(OC)c1 [Nonivamide]
- Complete ([1]; NCI-H292 cells, complete media): 1.201
- Difference [1, 10]: −0.42
- Cholesterol-free media + simvastatin (0.04 μM) ([2]; cholesterol-free media with simvastatin 0.04 μM, […]): 1.059
- Complete Media ([2]; complete media, […]): 1.139
- Difference ([2]; complete media minus cholesterol-free media + simvastatin, […]): 0.08

Compound: Atazanavir (sulfate)
- Difference [1, 16]: −0.18
- Cholesterol-free [1, 17]: 1.207
- Complete [1, 18]: 1.022
- Cholesterol-free media + simvastatin (0.04 μM) [2, 6]: 1.26
- Complete Media [2, 7]: 1.128
- Difference [2, 14]: −0.13

Compound: CCC[C@@]1(CCc2ccccc2)CC(O)=C([C@H](CC)c2cccc(NS(=O)(=O)c3ccc(C(F)(F)F)cn3)c2)C(=O)O1 [Tipranavir]
- Difference [1, 24]: −0.27
- Cholesterol-free [1, 9]: 0.9401
- Complete ([1]; NCI-H292 cells, complete media): 0.6703
- Cholesterol-free media + simvastatin (0.04 μM) [2, 27]: 1.22
- Complete Media [2, 28]: 1.177
- Difference ([2]; complete media minus cholesterol-free media + simvastatin (0.04 μM), […]): −0.04

Compound: CN(C(=O)/C=C/c1ccoc1)[C@@H]1CC[C@@]2(O)[C@H]3Cc4ccc(O)c5c4[C@@]2(CCN3CC2CC2)[C@H]1O5 [Nalfurafine (hydrochloride)]
- Difference [1, 24]: −0.29
- Cholesterol-free [1, 9]: 1.222
- Complete ([1]; NCI-H292 cells, complete media): 0.931
- Cholesterol-free media + simvastatin (0.04 μM) [2, 6]: 1.083
- Complete Media [2, 7]: 0.926
- Difference [2, 12]: −0.16

Compound: Cc1cnc(NC(=O)C2=C(O)c3ccccc3S(=O)(=O)N2C)s1 [Meloxicam]
- Complete ([1]; NCI-H292 cells, complete media): 0.7862
- Difference [1, 13]: −0.39
- Cholesterol-free media + simvastatin (0.04 μM) [2, 25]: 1.111
- Difference [2, 8]: 0.12

Compound: CN(Cc1cnc2nc(N)nc(N)c2n1)c1ccc(C(=O)N[C@@H](CCC(=O)[O-])C(=O)[O-])cc1.[Na+].[Na+] [Methotrexate (disodium)]
- Difference [1, 15]: −0.05
- Cholesterol-free [1, 3]: 0.06701
- Complete [1, 4]: 0.01682
- Cholesterol-free media + simvastatin (0.04 μM) [2, 27]: 0.2727
- Complete Media [2, 28]: 0.2318
- Difference ([2]; complete media minus cholesterol-free media + simvastatin (0.04 μM), >0 enhanced anti-cancer activity, about 0 neutral, <0 antagonist): −0.04

Compound: COc1ccc2cc(CCC(C)=O)ccc2c1 [Nabumetone]
- Difference [1, 16]: −0.18
- Cholesterol-free [1, 17]: 1.034
- Complete [1, 18]: 0.8533
- Cholesterol-free media + simvastatin (0.04 μM) [2, 19]: 1.525
- Complete Media [2, 20]: 1.112
- Difference [2, 14]: −0.41
